Reference: paper PMC4104029, “Mechanism of Action of Compound-13: An α1-Selective Small Molecule Activator of AMPK” (Chemistry & Biology, 2014)

How the values were obtained:
[1] = target: T1, AMPK α2/α1 CAT β1γ1 (Homo sapiens, UniProt P54619+P54646, A116S/A126G/A242I/C200S/E112D/E217D/E235Q/E34K/F89I/G228D/H108N/I233T/I32V/K62R/L254M/M114K/M246K/Q36E/R227C/R239P/T243S/T87S/V111L/V17I/V230I); experiment: Chimeric AMPK complex activation assay; assay type: biochemical; details: complex expressed in E. coli; read-out: EC50, allosteric activation
T1 construct: 6×His (N); made in house; host or cells: E. coli (tricistronic pET15-b construct)
T1 sequence (P54619 whole entry, stated change not applied): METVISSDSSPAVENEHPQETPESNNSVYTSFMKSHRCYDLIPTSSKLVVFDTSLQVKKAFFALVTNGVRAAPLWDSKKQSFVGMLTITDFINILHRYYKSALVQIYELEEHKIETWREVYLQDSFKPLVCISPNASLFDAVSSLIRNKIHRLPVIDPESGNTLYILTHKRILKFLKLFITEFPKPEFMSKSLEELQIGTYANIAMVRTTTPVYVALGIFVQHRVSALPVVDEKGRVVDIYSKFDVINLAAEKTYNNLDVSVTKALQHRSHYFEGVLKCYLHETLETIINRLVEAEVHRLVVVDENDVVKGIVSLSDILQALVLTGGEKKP
T1 sequence (Q9Y478 whole entry, further chain): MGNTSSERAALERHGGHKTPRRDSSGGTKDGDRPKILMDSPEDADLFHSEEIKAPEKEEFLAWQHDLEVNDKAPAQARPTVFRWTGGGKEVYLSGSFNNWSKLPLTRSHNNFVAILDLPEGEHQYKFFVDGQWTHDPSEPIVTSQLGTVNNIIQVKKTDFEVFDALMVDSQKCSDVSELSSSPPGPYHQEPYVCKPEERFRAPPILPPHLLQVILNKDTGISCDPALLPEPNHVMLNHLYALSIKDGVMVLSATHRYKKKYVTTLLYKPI
T1 sequence (P54646 other isoform, or with tags, fused parts or gaps with the stated changes): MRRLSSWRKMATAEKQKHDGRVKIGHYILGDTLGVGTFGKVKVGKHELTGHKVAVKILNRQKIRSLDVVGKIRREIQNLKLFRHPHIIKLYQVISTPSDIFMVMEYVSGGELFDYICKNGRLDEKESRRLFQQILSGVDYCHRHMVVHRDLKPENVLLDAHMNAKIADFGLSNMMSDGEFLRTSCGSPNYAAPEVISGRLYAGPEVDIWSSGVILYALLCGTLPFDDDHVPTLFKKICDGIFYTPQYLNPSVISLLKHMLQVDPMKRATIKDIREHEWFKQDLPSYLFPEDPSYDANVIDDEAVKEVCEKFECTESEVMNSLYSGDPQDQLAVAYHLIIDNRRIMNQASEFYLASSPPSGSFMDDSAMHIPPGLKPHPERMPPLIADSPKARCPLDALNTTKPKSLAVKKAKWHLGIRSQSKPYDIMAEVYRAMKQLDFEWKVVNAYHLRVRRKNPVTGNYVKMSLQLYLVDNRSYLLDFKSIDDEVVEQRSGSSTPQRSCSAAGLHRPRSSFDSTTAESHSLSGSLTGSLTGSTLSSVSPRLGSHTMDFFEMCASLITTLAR
Text: (§1) Figure 3 Regulatory Elements within the α-Linker Determine the Isoform Specificity of C2 (A) Diagram illustrating the domain organization of the AMPKα subunit with a global pairwise alignment of a section of the α-linker of human AMPKα1 (Q13131) and AMPKα2 (P54646). Regulatory elements in the α-linker are highlighted, including the α-hook as originally defined by [Xiao et al. (2011)] (pink) and the reassigned sequence (also known as α-RIM2) shaded in orange. The secondary structure for α1 is derived from PDB ID 2Y94. The table summarizes the sequences of the α1/α2 chimeras produced to examine the role of various structural elements in the activation of α2β1γ1 complexes by C2. (B–E) Human AMPKα1/α2 chimeras (defined in A) were generated as complexes with β1γ1 in E. coli. Purified active complexes were assayed for the activation of phosphotransferase activity by AMP and C2, as described in Figure 1. Results (line graphs) are expressed as the fold increase in activity relative to reactions performed in the absence of compound and represent the mean ± SD of three independent experiments. Complexes were also assayed for protection against dephosphorylation and inactivation by PP2Cα, as described in Figures 2C and 2D. Results (bar charts) are expressed as the mean (percentage of control) ± SD of three independent experiments. Representative blots of pT172 and total AMPKα are shown below the bar charts. TEXT PRINTED IN THE PICTURE: (B) C2: AMPK211 - α2/α1 CAT: EC50: ND | (B) AMP: AMPK211 - α2/α1 CAT: EC50: 1.3 ± 0.2 μM | (C) C2: AMPK211 - α2/α1 REG: EC50: 0.009 ± 0.0006 μM | (C) AMP: AMPK211 - α2/α1 REG: EC50: 3.1 ± 0.3 μM | (D) C2: AMPK211 - α2/α1 HOOK: EC50: ND | (D) AMP: AMPK211 - α2/α1 HOOK: EC50: 1.4 ± 0.2 μM | (E) C2: AMPK211 + α2/α1 LOOP: EC50: 0.013 ± 0.001 μM | (E) AMP: AMPK211 + α2/α1 LOOP: EC50: 2.7 ± 0.3 μM […]
(§2) AMPK phosphotransferase activity was assayed in reactions (50 μl) containing 50 mM HEPES, pH 7.4, 10 mM MgCl2, 0.1 mM EGTA, 1 mM DTT, 0.01% BRIJ-35, 100 μM [γ-^32P]ATP (∼250 CPM⋅pmol^−1) and 200 μM AMARA (AMARAASAAALARRR). Reactions were started by the addition of AMPK (5 mU), incubated for 20 min at 30°C and quenched by spotting onto P81 and immersion in 75 mM H3PO4. Washed filters were dried and [^32P] incorporation determined by Cherenkov counting. AMPK activity in cell extracts was determined by immunoprecipitation with AMPKα1 or AMPKα2 antibodies from 50 μg material, as previously described ([Hunter et al., 2011]). […]

[2] = target: T2, AMPK α2/α1 HOOK β1γ1 (Homo sapiens, UniProt P54619+P54646, A386E/C382H/K379R/P383T); experiment: Chimeric AMPK complex activation assay; assay type: biochemical; details: complex expressed in E. coli; read-out: EC50, allosteric activation
T2 construct: 6×His (N); made in house; host or cells: E. coli (tricistronic pET15-b construct)
T2 sequence (P54646 whole entry K379R/C382H/P383T/A386E): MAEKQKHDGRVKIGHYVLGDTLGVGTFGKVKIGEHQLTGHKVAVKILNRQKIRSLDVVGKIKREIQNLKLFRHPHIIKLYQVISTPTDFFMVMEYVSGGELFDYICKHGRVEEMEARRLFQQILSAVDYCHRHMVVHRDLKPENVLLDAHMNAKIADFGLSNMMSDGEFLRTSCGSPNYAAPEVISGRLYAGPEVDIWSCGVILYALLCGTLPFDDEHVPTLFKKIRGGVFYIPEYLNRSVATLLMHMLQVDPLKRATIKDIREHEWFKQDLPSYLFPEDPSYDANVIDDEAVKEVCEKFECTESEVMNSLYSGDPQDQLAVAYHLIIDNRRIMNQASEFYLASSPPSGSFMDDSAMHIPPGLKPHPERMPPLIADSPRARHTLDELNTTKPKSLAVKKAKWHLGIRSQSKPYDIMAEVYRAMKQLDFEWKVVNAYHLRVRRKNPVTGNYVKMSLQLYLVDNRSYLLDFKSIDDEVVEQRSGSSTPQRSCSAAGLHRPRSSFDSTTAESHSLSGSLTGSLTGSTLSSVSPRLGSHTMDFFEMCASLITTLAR
T2 sequence (Q9Y478 whole entry partner): as the sequence (Q9Y478 whole entry, further chain) above
T2 sequence (P54619 whole entry): as the sequence (P54619 whole entry, stated change not applied) above
Text: as §1, §2

[3] = tested on: α1-KO hepatocytes; experiment: Lipid synthesis, [1-14C]acetate incorporation; assay type: cell-based, mouse; details: 1 μM
Protocol: Figure 6 C13 Is Relatively Selective for α1 Complexes in Primary Hepatocytes (A) Hepatocytes from WT, AMPKα1^−/−, and AMPKα2^−/− mice were treated with the indicated concentrations of C13 and labeled with [1-^14C]acetate for 3 hr. Rates of fatty acid and sterol synthesis were estimated from incorporation into saponifiable (upper graphs) and nonsaponifiable (lower graphs) lipids. Results are expressed as percentage WT vehicle and represent the mean ± SD for three independent experiments. (B) Mouse hepatocytes were incubated with the indicated concentrations of C13 for 3 hr, and lysates were analyzed using western blotting with the indicated antibodies.
Lipid synthesis was determined by labeling adherent cultures of primary hepatocytes with [1-^14C]acetate. After overnight culture, hepatocytes (5 × 10^5) were washed with warm PBS and allowed to rest for 3 hr in fresh M199. Cells were treated with vehicle (0.1% DMSO) or the indicated compounds and labeled with 1 mCi⋅mmol^−1 [1-^14C]acetate for 3 hr. […] Lipogenesis in hepatocytes from AMPKβ1/β2-KO mice was determined in media containing [^3H]acetate (0.2 mCi⋅mmol^−1). After 4 hr labeling, total lipids were extracted using the method of [Bligh and Dyer (1959)], and incorporated [^3H] was determined by scintillation counting. The results are expressed as micromoles acetate incorporated per gram-hour.

| Compound | EC50 [1] [µM] | EC50 [2] [µM] | effect on synthesis of saponifiable and nonsaponifiable lipids [3] |
| --- | --- | --- | --- |
| Nc1ncnc2c1ncn2[C@@H]1O[C@H](COP(=O)(O)O)[C@@H](O)[C@H]1O [AMP, reference compound] | 1.3 ± 0.2 | 1.4 ± 0.2 | – |
| CC(C)C(=O)OCOP(=O)(OCOC(=O)C(C)C)c1ccc(C2=NOC(=O)C2)o1 [Compound C13] | – | – | no effect |
